Measured values: patent US10202351B2, “Pyrazolyl derivatives as pest control agents” (BAYER ANIMAL HEALTH GMBH, priority 2015, dated 2019)

Experiments:
Boophilus microplus = Boophilus microplus injection test; assay type: in vivo; conditions: application rate 20 μg/animal, after 7 days, laying of fertile eggs
Method: Solvent: dimethyl sulfoxide […] The animals are transferred into dishes and kept in a climate-controlled room. Efficacy is assessed after 7 days by laying of fertile eggs. Eggs which are not visibly fertile are stored in a climate-controlled cabinet until the larvae hatch after about 42 days.

Ctenocephalides felis [1] = assay: Ctenocephalides felis oral test; assay type: in vivo; conditions: application rate 100 ppm in citrated cattle blood, kill after 2 days
Text: Solvent: dimethyl sulfoxide […] Dilution with citrated cattle blood gives the desired concentration. About 20 unfed adult cat fleas (Ctenocephalides felis) are placed into a chamber which is closed at the top and bottom with gauze. A metal cylinder whose bottom end is closed with parafilm is placed onto the chamber. The cylinder contains the blood/active ingredient formulation, which can be imbibed by the fleas through the parafilm membrane.

Rhipicephalus sanguineus = Rhipicephalus sanguineus in vitro contact test with adult brown dog ticks; assay type: in vivo; conditions: after 48 h, dead or moribund ticks
Method: After the solvent has evaporated off, the tubes are populated with 5-10 adult dog ticks (Rhipicephalus sanguineus), sealed with a perforated plastic lid and incubated in a horizontal position in the dark at room temperature and ambient humidity. After 48 h, efficacy is determined. To this end, the ticks are knocked to the base of the tube and incubated on a hotplate at 45-50° C. for not more than 5 min. Ticks which remain motionless on the base or move in such an uncoordinated manner that they are unable to deliberately avoid the heat by climbing upwards are considered to be dead or moribund.

Phaedon cochleariae = Phaedon cochleariae spray test; assay type: in vivo; conditions: larvae on Chinese cabbage leaf discs, after 7 days
Method: (§1) Solvent: 78.0 parts by weight of acetone • • 1.5 parts by weight of dimethylformamide Emulsifier: alkylaryl polyglycol ether […] To produce further test concentrations, the formulation is diluted with emulsifier-containing water. Discs of Chinese cabbage leaves (Brassica pekinensis) are sprayed with an active ingredient formulation of the desired concentration and, after drying, populated with larvae of the mustard beetle (Phaedon cochleariae).

Spodoptera frugiperda = Spodoptera frugiperda spray test; assay type: in vivo; conditions: caterpillars on maize leaf discs, after 7 days
Method: as §1, with “Leaf discs” for “Discs”, “maize (Zea mays)” for “Chinese cabbage leaves (Brassica pekinensis)”, “compound” for “ingredient”, “caterpillars” for “larvae”, “armyworm (Spodoptera frugiperda).” for “mustard beetle (Phaedon cochleariae).”

Lucilia cuprina = Lucilia cuprina test; assay type: in vivo; conditions: application rate 100 ppm, L1 larvae, kill after 2 days
Method: (§2) Solvent: dimethyl sulfoxide
(§3) To produce a suitable preparation of active compound, 10 mg of active compound are mixed with 0.5 ml of dimethyl sulfoxide, and the concentrate is diluted with water to the desired concentration.
About 20 L1 larvae of the Australian sheep blowfly (Lucilia cuprina) are transferred into a test vessel containing minced horsemeat and the active compound formulation of the desired concentration.
After 2 days, the kill in % is determined. 100% means that all the larvae have been killed; 0% means that no larvae have been killed.

Ctenocephalides felis [2] = assay: Ctenocephalides felis in vitro contact test with adult cat fleas; assay type: in vivo; conditions: application rate 5 μg/cm^2 (500 g/ha), after 48 h, dead or moribund fleas
Method: After the solvent has evaporated off, the tubes are populated with 5-10 adult cat fleas (Ctenocephalides felis), sealed with a perforated plastic lid and incubated in a horizontal position at room temperature and ambient humidity. After 48 h, efficacy is determined. To this end, the tubes are stood upright and the fleas are knocked to the base of the tube. Fleas which remain motionless at the base or move in an uncoordinated manner are considered to be dead or moribund.

Musca domestica = Musca domestica test; assay type: in vivo; conditions: application rate 100 ppm, adult houseflies, kill after 2 days
Method: as §2, §3
Vessels containing a sponge treated with sugar solution and the active ingredient formulation of the desired concentration are populated with 10 adult houseflies (Musca domestica)).
After 2 days, the kill in % is determined. 100% means that all of the flies have been killed; 0% means that none of the flies have been killed.

Tetranychus urticae = Tetranychus urticae spray test, OP-resistant; assay type: in vivo; conditions: all stages on bean leaf discs, after 6 days
Method: Solvent: 78.0 parts by weight of acetone • • 1.5 parts by weight of dimethylformamide Emulsifier: alkylaryl polyglycol ether […] To produce further test concentrations, the formulation is diluted with emulsifier-containing water. Discs of bean leaves (Phaseolus vulgaris) infested with all stages of the greenhouse red spider mite (Tetranychus urticae) are sprayed with an active ingredient formulation of the desired concentration.

[3] = logP determination by HPLC on reversed-phase column (EEC Directive 79/831 Annex V.A8); assay type: physicochemical
[4] = application rate 1 μg/cm^2 (100 g/ha)
[5] = application rate 5 μg/cm^2 (500 g/ha)
[6] = Table 1, HPLC C18, acetonitrile/water with formic acid

| Compound | efficacy (Boophilus microplus) | efficacy (Ctenocephalides felis [1]) | efficacy (Rhipicephalus sanguineus; [4]) | efficacy (Phaedon cochleariae; application rate 100 g/ha) | efficacy (Spodoptera frugiperda; application rate 100 g/ha) | efficacy (Lucilia cuprina) | efficacy (Rhipicephalus sanguineus; [5]) | efficacy (Ctenocephalides felis [2]) | efficacy (Musca domestica) | efficacy (Tetranychus urticae; application rate 100 g/ha) | efficacy (Tetranychus urticae; application rate 500 g/ha) | efficacy (Phaedon cochleariae; application rate 500 g/ha) | efficacy (Spodoptera frugiperda; application rate 500 g/ha) | lgP [3, 6] | lgP ([3]; synthesis example) |
| --- | --- | --- | --- | --- | --- | --- | --- | --- | --- | --- | --- | --- | --- | --- | --- |
| Cc1cc(C(F)(C(F)(F)F)C(F)(F)F)cc(C(F)(F)F)c1-n1cc(-c2cc(NC(=O)c3cocn3)ccc2F)cn1 [Example 2-12] | 100% | 95% | 100% | 100% | 100% | 90% | – | – | – | – | – | – | – | – | – |
| O=C(Nc1ccc(F)c(-c2cnn(-c3c(Br)cc(C(F)(C(F)(F)F)C(F)(F)F)cc3C(F)(F)F)c2)c1)c1cocn1 [Example 2-14] | 100% | 100% | – | 100% | 100% | 90% | 80% | 100% | 90% | – | – | – | – | – | – |
| Cc1cc(C(F)(C(F)(F)F)C(F)(F)F)cc(C)c1-n1cc(-c2ccc(Cl)c(NC(=O)c3ccc(F)cc3)c2)cn1 [Example 4, N-[2-chloro-5-[1-[2,6-dimethyl-4-[1,2,2,2-tetrafluoro-1-(trifluoromethyl)ethyl]phenyl]pyrazol-4-yl]phenyl]-4-fluorobenzamide] | 100% | 100% | – | – | 100% | 100% | 100% | – | – | 100% | 90% | 100% | 100% | lgP 5.57 | 5.57 |
| Cc1cc(C(F)(C(F)(F)F)C(F)(F)F)cc(C)c1-n1cc(-c2ccc(F)c(NC(=O)c3ccc(F)cc3)c2)cn1 [Example 5] | 100% | 90% | – | – | 100% | 100% | 80% | – | 80% | 100% | 100% | 100% | 100% | lgP 5.07 | – |
| Cc1cc(C(F)(C(F)(F)F)C(F)(F)F)cc(C)c1-n1cc(-c2cnc(Cl)c(NC(=O)c3ccc(F)cc3)c2)cn1 [Example 11] | 100% | 100% | – | 100% | 100% | 100% | 80% | – | 100% | 90% | – | – | – | lgP 5.14 | – |
| Cc1cc(C(F)(C(F)(F)F)C(F)(F)F)cc(C)c1-n1cc(-c2ccc(F)c(NC(=O)c3cncnc3)c2)cn1 [Example 15] | 100% | 100% | – | 100% | 100% | 100% | – | 100% | 100% | – | – | – | – | lgP 3.95 | – |
| Cc1cc(C(F)(C(F)(F)F)C(F)(F)F)cc(C)c1-n1cc(-c2ccc(F)c(NC(=O)c3ccncn3)c2)cn1 [Example 16] | 100% | 100% | – | 100% | 100% | 95% | 80% | – | 100% | – | – | – | – | lgP 5.04 | – |
| O=C(Nc1cc(-c2cnn(-c3c(Cl)cc(C(F)(C(F)(F)F)C(F)(F)F)cc3Cl)c2)cnc1F)c1ccncc1 [Example 19] | 100% | 100% | – | 100% | 100% | 100% | – | 100% | 100% | 100% | – | – | – | – | – |
| Cc1cc(C(F)(C(F)(F)F)C(F)(F)F)cc(C(F)(F)F)c1-n1cc(-c2ccc(F)c(NC(=O)c3ccc(F)cc3)c2F)cn1 [Example 23] | 100% | 100% | 100% | 100% | 100% | 100% | – | – | 80% | – | – | – | – | – | – |
| COc1cc(C(=O)Nc2cc(-c3cnn(-c4c(C)cc(C(F)(C(F)(F)F)C(F)(F)F)cc4C(F)(F)F)c3)cnc2Cl)ccc1F [Example 24] | 100% | 100% | – | 100% | 100% | 100% | 100% | – | 100% | 100% | – | – | – | – | – |
| Cc1cc(C(F)(C(F)(F)F)C(F)(F)F)cc(C(F)(F)F)c1-n1cc(-c2ccc(F)c(NC(=O)c3ccncc3)c2F)cn1 [Example 25] | 100% | 100% | – | 100% | 100% | 100% | – | 100% | 100% | 100% | – | – | – | – | – |
| Cc1cc(C(F)(C(F)(F)F)C(F)(F)F)cc(C(F)(F)F)c1-n1cc(-c2ccc(F)c(NC(=O)c3ccc(C#N)cc3)c2)cn1 [Example 33] | 100% | 100% | – | 100% | 100% | 100% | 80% | 100% | 90% | 90% | – | – | – | – | – |
| Cc1cc(C(F)(C(F)(F)F)C(F)(F)F)cc(C(F)(F)F)c1-n1cc(-c2ccc(F)c(NC(=O)c3ccnc(F)c3)c2)cn1 [Example 51] | 100% | 100% | – | 100% | 100% | 100% | – | 100% | 100% | 90% | – | – | – | – | – |
| Cc1cnccc1C(=O)Nc1cc(-c2cnn(-c3c(C)cc(C(F)(C(F)(F)F)C(F)(F)F)cc3C(F)(F)F)c2)ccc1F [Example 54] | 100% | 100% | – | 100% | 100% | 100% | – | 100% | 100% | 100% | – | – | – | – | – |
| Cc1cc(C(F)(C(F)(F)F)C(F)(F)F)cc(C(F)(F)F)c1-n1cc(-c2ccc(F)c(NC(=O)C3CSC3)c2)cn1 [Example 66] | 100% | 100% | – | 100% | 100% | 100% | 100% | – | 100% | 100% | – | – | – | – | – |
| Cc1cc(C(F)(C(F)(F)F)C(F)(F)F)cc(C(F)(F)F)c1-n1cc(-c2cccc(NC(=O)c3ccncc3)c2F)cn1 [Example 68] | 100% | 100% | – | 100% | 100% | 100% | – | 100% | 100% | 100% | – | – | – | – | – |
| Cc1cc(C(F)(C(F)(F)F)C(F)(F)F)cc(C(F)(F)F)c1-n1cc(-c2cccc(NC(=O)c3cocn3)c2F)cn1 [Example 77] | 100% | 100% | 100% | 100% | 100% | 100% | – | – | 100% | – | – | – | – | – | – |
